Experimental data: US20170190671A1, “BIS(ARYL)CATECHOL DERIVATIVES AS HERBICIDES” (E I DU PONT DE NEMOURS AND COMPANY, priority 2014, published 2017)

How the values were obtained:
Assay type in all cases: in vivo
[1] = tested on: oilseed rape (Brassica napus); assay: Test C preemergence; settings: Brassica napus, pre-emergence, preemergence, scale 0 to 100, read-out: Plant response rating, Oilseed Rape
Summary of the method: (§1)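 Seeds in loam-sand soil were treated preemergence, and plants at the 1- to 4-leaf stage (2-18 cm) in peat-based medium were sprayed postemergence, with test chemicals in a non-phytotoxic solvent containing surfactant. After 13-15 days in a greenhouse, response was rated visually against controls from 0 (no effect) to 100 (complete control).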

[2] = tested on: winter wheat (Triticum aestivum); assay: Test C preemergence; settings: Triticum aestivum, pre-emergence, 336 h, preemergence, scale 0 to 100, read-out: Plant response rating, Wheat
Summary of the method: as §1

[3] = tested on: giant foxtail (Setaria faberii); assay: Test C preemergence; settings: Setaria faberi, pre-emergence, 336 h, preemergence, scale 0 to 100, read-out: Plant response rating, Foxtail, Giant
Summary of the method: as §1

[4] = tested on: large (Lg) crabgrass (Digitaria sanguinalis); assay: Test C preemergence; settings: Digitaria sanguinalis, pre-emergence, 336 h, preemergence, scale 0 to 100, read-out: Plant response rating, Crabgrass, Large
Summary of the method: as §1

[5] = tested on: Italian ryegrass (Lolium multiflorum); assay: Test C postemergence; settings: Lolium multiflorum, post-emergence, 336 h, Postemergence, scale 0 to 100, read-out: Plant response rating, Ryegrass, Italian
Summary of the method: as §1

[6] = tested on: lambsquarters (Chenopodium album); assay: Test C postemergence; settings: Chenopodium album, post-emergence, 336 h, Postemergence, scale 0 to 100, read-out: Plant response rating, Lambsquarters
Summary of the method: as §1

[7] = tested on: barnyardgrass (Echinochloa crus-galli); assay: Test C postemergence; settings: Echinochloa crus-galli, post-emergence, Postemergence, scale 0 to 100, read-out: Plant response rating, Barnyardgrass
Summary of the method: as §1

soybean (Glycine max) = assay: Test C postemergence; settings: Glycine max, post-emergence, Postemergence, scale 0 to 100, read-out: Plant response rating, Soybean
Summary of the method: as §1

[8] = tested on: velvetleaf (Abutilon theophrasti); assay: Test C postemergence; settings: Abutilon theophrasti, post-emergence, Postemergence, scale 0 to 100, read-out: Plant response rating, Velvetleaf
Summary of the method: as §1

[9] = tested on: johnsongrass (Sorghum halepense); assay: Test C postemergence; settings: Sorghum halepense, post-emergence, 336 h, Postemergence, scale 0 to 100, read-out: Plant response rating, Johnsongrass
Summary of the method: as §1

[10] = tested on: oilseed rape (Brassica napus); assay: Test C postemergence; settings: Brassica napus, post-emergence, Postemergence, scale 0 to 100, read-out: Plant response rating, Oilseed Rape
Summary of the method: as §1

[11] = tested on: galium (catchweed bedstraw, Galium aparine); assay: Test C postemergence; settings: Galium, post-emergence, 336 h, Postemergence, scale 0 to 100, read-out: Plant response rating, Galium
Summary of the method: as §1

[12] = tested on: chickweed (common chickweed, Stellaria media); assay: Test C postemergence; settings: Stellaria media, post-emergence, Postemergence, scale 0 to 100, read-out: Plant response rating, Chickweed
Summary of the method: as §1

[13] = tested on: ragweed (common ragweed, Ambrosia elatior); assay: Test C postemergence; settings: Ambrosia artemisiifolia, post-emergence, 336 h, Postemergence, scale 0 to 100, read-out: Plant response rating, Ragweed
Summary of the method: as §1

[14] = tested on: winter wheat (Triticum aestivum); assay: Test C postemergence; settings: Triticum aestivum, post-emergence, 336 h, Postemergence, scale 0 to 100, read-out: Plant response rating, Wheat
Summary of the method: as §1

[15] = tested on: giant foxtail (Setaria faberii); assay: Test C postemergence; settings: Setaria faberi, post-emergence, 336 h, Postemergence, scale 0 to 100, read-out: Plant response rating, Foxtail, Giant
Summary of the method: as §1

[16] = tested on: yellow nutsedge (Cyperus esculentus); assay: Test C postemergence; settings: Cyperus, post-emergence, 336 h, Postemergence, scale 0 to 100, read-out: Plant response rating, Nutsedge, Yellow
Summary of the method: as §1

[17] = tested on: blackgrass (Alopecurus myosuroides); assay: Test C postemergence; settings: Alopecurus myosuroides, post-emergence, 336 h, Postemergence, scale 0 to 100, read-out: Plant response rating, Blackgrass
Summary of the method: as §1

corn (Zea mays) = assay: Test C postemergence; settings: Zea mays, post-emergence, 336 h, Postemergence, scale 0 to 100
Summary of the method: as §1

[18] = tested on: pigweed (Amaranthus retroflexus); assay: Test C postemergence; settings: Amaranthus retroflexus, post-emergence, 336 h, Postemergence, scale 0 to 100, read-out: Plant response rating, Pigweed
Summary of the method: as §1

[19] = tested on: large (Lg) crabgrass (Digitaria sanguinalis); assay: Test C postemergence; settings: Digitaria sanguinalis, post-emergence, 336 h, Postemergence, scale 0 to 100, read-out: Plant response rating, Crabgrass, Large
Summary of the method: as §1

[20] = tested on: morningglory (Ipomoea coccinea); assay: Test C postemergence; settings: Ipomoea, post-emergence, 336 h, Postemergence, scale 0 to 100, read-out: Plant response rating, Morningglory
Summary of the method: as §1

Q: What does the source list for `Fc1cnc(Oc2c(Cl)cccc2Oc2ncc(Cl)cn2)nc1` [Compound 18, 5-chloro-2-[5-chloro-6-[(5-fluoro-2-pyrimidinyl)oxy]phenoxy]pyrimidine]?
A: plant injury at 31 g/ha ([1]; 31 g ai/ha): 100%; plant injury at 62 g/ha ([1]; 62 g ai/ha): 100%; plant injury at 125 g/ha ([1]; 125 g ai/ha): 100%; plant injury at 250 g/ha ([1]; 250 g ai/ha): 100%; plant injury at 31 g/ha ([2]; 31 g ai/ha): 0%; plant injury at 62 g/ha ([2]; 62 g ai/ha): 15%; plant injury at 125 g/ha ([2]; 125 g ai/ha): 70%; plant injury at 250 g/ha ([2]; 250 g ai/ha): 85%; pest or weed control at 31 g/ha ([3]; 31 g ai/ha): 98%; pest or weed control at 62 g/ha ([3]; 62 g ai/ha): 100%; pest or weed control at 125 g/ha ([3]; 125 g ai/ha): 100%; pest or weed control at 31 g/ha ([4]; 31 g ai/ha): 100%; pest or weed control at 62 g/ha ([4]; 62 g ai/ha): 100%; pest or weed control at 125 g/ha ([4]; 125 g ai/ha): 100%; pest or weed control at 31 g/ha ([5]; 31 g ai/ha): 0%; pest or weed control at 62 g/ha ([5]; 62 g ai/ha): 0%; pest or weed control at 125 g/ha ([5]; 125 g ai/ha): 0%; pest or weed control at 250 g/ha ([5]; 250 g ai/ha): 40%; pest or weed control at 31 g/ha ([6]; 31 g ai/ha): 65%; pest or weed control at 62 g/ha ([6]; 62 g ai/ha): 90%; pest or weed control at 125 g/ha ([6]; 125 g ai/ha): 95%; pest or weed control at 250 g/ha ([6]; 250 g ai/ha): 95%; pest or weed control at 31 g/ha ([7]; 31 g ai/ha): 5%; pest or weed control at 62 g/ha ([7]; 62 g ai/ha): 5%; pest or weed control at 125 g/ha ([7]; 125 g ai/ha): 5%; pest or weed control at 250 g/ha ([7]; 250 g ai/ha): 10%; plant injury at 31 g/ha (soybean (Glycine max); 31 g ai/ha): 75%; plant injury at 62 g/ha (soybean (Glycine max); 62 g ai/ha): 85%; plant injury at 125 g/ha (soybean (Glycine max); 125 g ai/ha): 90%; plant injury at 250 g/ha (soybean (Glycine max); 250 g ai/ha): 95%; pest or weed control at 31 g/ha ([8]; 31 g ai/ha): 45%; pest or weed control at 62 g/ha ([8]; 62 g ai/ha): 60%; pest or weed control at 125 g/ha ([8]; 125 g ai/ha): 70%; pest or weed control at 250 g/ha ([8]; 250 g ai/ha): 85%; pest or weed control at 31 g/ha ([9]; 31 g ai/ha): 5%; pest or weed control at 62 g/ha ([9]; 62 g ai/ha): 10%; pest or weed control at 125 g/ha ([9]; 125 g ai/ha): 5%; pest or weed control at 250 g/ha ([9]; 250 g ai/ha): 10%; plant injury at 31 g/ha ([10]; 31 g ai/ha): 20%; plant injury at 62 g/ha ([10]; 62 g ai/ha): 35%; plant injury at 125 g/ha ([10]; 125 g ai/ha): 50%; plant injury at 250 g/ha ([10]; 250 g ai/ha): 80%; pest or weed control at 31 g/ha ([11]; 31 g ai/ha): 70%; pest or weed control at 62 g/ha ([11]; 62 g ai/ha): 90%; pest or weed control at 125 g/ha ([11]; 125 g ai/ha): 95%; pest or weed control at 250 g/ha ([11]; 250 g ai/ha): 95%; pest or weed control at 31 g/ha ([12]; 31 g ai/ha): 50%; pest or weed control at 62 g/ha ([12]; 62 g ai/ha): 55%; pest or weed control at 125 g/ha ([12]; 125 g ai/ha): 80%; pest or weed control at 250 g/ha ([12]; 250 g ai/ha): 95%; pest or weed control at 31 g/ha ([13]; 31 g ai/ha): 65%; pest or weed control at 62 g/ha ([13]; 62 g ai/ha): 75%; pest or weed control at 125 g/ha ([13]; 125 g ai/ha): 90%; pest or weed control at 250 g/ha ([13]; 250 g ai/ha): 95%; plant injury at 31 g/ha ([14]; 31 g ai/ha): 0%; plant injury at 62 g/ha ([14]; 62 g ai/ha): 0%; plant injury at 125 g/ha ([14]; 125 g ai/ha): 0%; plant injury at 250 g/ha ([14]; 250 g ai/ha): 15%; pest or weed control at 31 g/ha ([15]; 31 g ai/ha): 15%; pest or weed control at 62 g/ha ([15]; 62 g ai/ha): 5%; pest or weed control at 125 g/ha ([15]; 125 g ai/ha): 25%; pest or weed control at 250 g/ha ([15]; 250 g ai/ha): 45%; pest or weed control at 31 g/ha ([16]; 31 g ai/ha): 5%; pest or weed control at 62 g/ha ([16]; 62 g ai/ha): 10%; pest or weed control at 125 g/ha ([16]; 125 g ai/ha): 10%; pest or weed control at 250 g/ha ([16]; 250 g ai/ha): 10%; pest or weed control at 31 g/ha ([17]; 31 g ai/ha): 0%; pest or weed control at 62 g/ha ([17]; 62 g ai/ha): 5%; pest or weed control at 125 g/ha ([17]; 125 g ai/ha): 5%; pest or weed control at 250 g/ha ([17]; 250 g ai/ha): 45%; Corn plant response rating (crop injury, 0 = no effect, 100 = complete kill) at 31 g/ha (corn (Zea mays); 31 g ai/ha): 5%; Corn plant response rating (crop injury, 0 = no effect, 100 = complete kill) at 62 g/ha (corn (Zea mays); 62 g ai/ha): 5%; Corn plant response rating (crop injury, 0 = no effect, 100 = complete kill) at 125 g/ha (corn (Zea mays); 125 g ai/ha): 20%; Corn plant response rating (crop injury, 0 = no effect, 100 = complete kill) at 250 g/ha (corn (Zea mays); 250 g ai/ha): 55%; pest or weed control at 31 g/ha ([18]; 31 g ai/ha): 80%; pest or weed control at 62 g/ha ([18]; 62 g ai/ha): 90%; pest or weed control at 125 g/ha ([18]; 125 g ai/ha): 95%; pest or weed control at 250 g/ha ([18]; 250 g ai/ha): 98%; pest or weed control at 31 g/ha ([19]; 31 g ai/ha): 5%; pest or weed control at 62 g/ha ([19]; 62 g ai/ha): 5%; pest or weed control at 125 g/ha ([19]; 125 g ai/ha): 55%; pest or weed control at 250 g/ha ([19]; 250 g ai/ha): 70%; pest or weed control at 31 g/ha ([20]; 31 g ai/ha): 75%; pest or weed control at 62 g/ha ([20]; 62 g ai/ha): 70%; pest or weed control at 125 g/ha ([20]; 125 g ai/ha): 85%; pest or weed control at 250 g/ha ([20]; 250 g ai/ha): 95%
